{"source": "patent US5602156A", "about": "“Method for inhibiting metalloproteinase expression” (The United States of America as represented by the …, priority 1994, dated 1997)", "key": {"MMP-2 [1]": {"test_system": "MMP-2", "conditions": "cited from earlier work; for MMP-2 induction/inhibition: human melanoma and fibrosarcoma cells"}, "[2]": {"test_system": "interstitial collagenase, MMP-1", "conditions": "human melanoma and fibrosarcoma cells; cited from earlier work"}, "MMP-9": {"test_system": "MMP-9", "assay": "Gelatin zymography of HT1080 cells, compound 1 with or without TGF-β1 (densitometry), 92 kDa", "format": "cell-based, human", "conditions": "TGF-β alone (0 hr compound 1), control band = 100%", "description": "(§1) Conditioned media for zymogram and Western blot analysis were produced under serum-free conditions. Cells (2 million) were plated in 25 cm^2 flasks in serum-containing medium and cultured overnight. Serum-containingmedium was removed and the cell monolayers were washed twice with DMEM/ITS (DMEM containing insulin (5 μg/mL), transferrin (5 μg/mL), and selenium (5 ng/mL)). The resultant cells were fed with 3 mL of DMEM/ITS and additives as described in the Examples for two 24 hour periods. Conditioned media samples were collected at 24 hours and cells were refed with fresh DMEM/ITS containing the described additives for an additional 24 hours. Conditioned media samples were centrifuged to remove cells and debris then frozen at -20° C. until use. Freeze and thaw cycles of the conditioned media were limited to no more than two.\n(§2) A2058 human melanoma cells, human HT1080 fibrosarcoma cells, and OVCAR3 human ovarian cancer cells were incubated with increasing concentrations of compound 1 (0.2-20 μM) or DMSO control (0.05%) and subjected to gelatin zymography. Aliquots of conditioned medium (15 μL) were electrophoresed on gelatin-containing 10% PAGE gels under nonreducing but denaturing conditions. These conditions allow the different gelatin-degrading species (MMPs) to separate by size. The enzymes renature after removal of the SDS by incubation of the gel with 2.5 % Triton X-100, and degrade the gelatin substrate present in the polyacrylamide gel upon overnight incubation in low salt collagenase buffer. Bands of clearing, seen after Coomassie blue staining correspond to areas of gelatinase activity.\n(§3) A2058 and HT1080 cells were incubated with compound 1 (2 μM), with or without TGF-β1 (5 ng/mL) for 24 and 48 hours prior to harvest of conditioned media. Aliquots were subjected to gelatin zymography as described in Example 1. Known concentrated conditioned medium from HT1080 cells was used for identification of the gelatinase species (92 kDa, gelatinase B/MMP-9; 72 kDa, gelatinase A/MMP-2 latent form; 65 kDa intermediate and 62 kDa activated forms of MMP-2).\n(§4) Lane 1 is the control resulting from treatment of the cells with 0.1% DMSO. Lanes 2 and 3 correspond to those cells which are treated with 2 μM compound 1 in the absence of TGF-β1 for 24 and 48 hours, respectively. Lane 4 corresponds to cells which have been treated with TGF-β1 in the absence of compound 1. Lane 5 corresponds to cells which have been treated with TGF-β1 for 48 hours with compound 1 being added to the incubation mixture for the final 24 hours. Lane 6 corresponds to cells which have been treated for 48 hours with both TGF-β1 and compound 1.\n(§5) *The control band was defined as 100% gelatinase activity and the other\n(§6) bands were normalized to it. Numbers reflect triplicate measurements from\n(§7) each zymogram band of representative zymograms. Standard deviations, not"}, "MMP-2 [3]": {"test_system": "MMP-2", "assay": "Gelatin zymography of HT1080 cells, compound 1 with or without TGF-β1 (densitometry)", "format": "cell-based, human", "conditions": "TGF-β alone (0 hr compound 1), control band = 100%", "description": "as §1, §2, §3, §4, §5, §6, §7"}, "gelatinase activity": {"test_system": "gelatinase activity", "assay": "Gelatin zymography of A2058 and HT1080 cells, compound 1 with or without TGF-β1 (results in words)", "format": "cell-based, human", "conditions": "TGF-β1 (5 ng/mL) alone for 48 hr", "description": "as §3, §4"}, "MMP-2 [4]": {"test_system": "MMP-2", "assay": "Gelatin zymography of A2058 cells, compound 1 with or without TGF-β1 (densitometry)", "format": "cell-based, human", "conditions": "TGF-β1 alone (0 hr compound 1), control band = 100%", "description": "as §1, §2, §3, §4, §5, §6, §7"}, "[5]": {"test_system": "gelatinase activity of the metalloproteinases", "assay": "Zymogram slices incubated with compound 1 or calcium chelators in the activating buffer (direct inhibition of enzyme)", "format": "biochemical, human", "conditions": "10 mM chelator in incubation buffer; data not shown", "description": "See, Felder, et al., J. Pharm. Exp. Therapeut. 257:967-971 (1991) and unpublished observations by the inventors.\nGelatin zymography was carded out using control conditioned media from A2058 cells and HT1080 cells in the absence of compound 1. Zymogram slices were incubated in low salt collagenase buffer with control (DMSO 0.1%), an inhibitory dose of compound 1 (20 μM), or the calcium chelators EGTA (10 mM) and EDTA (10 mM). […] See, Brown, et al., Cancer Res. 50:6184-6191 (1990). […] Lane 1 for each of the zymograms corresponds to A2058 while lane 2 corresponds to HT1080."}, "[6]": {"test_system": "gelatinase activity of the metalloproteinases", "conditions": "EDTA in incubation buffer; shown by others; cited from earlier work"}, "[7]": {"test_system": "receptor-operated and voltage-gated calcium influx", "conditions": "cited from earlier work"}, "arachidonic acid release": {"test_system": "arachidonic acid release", "conditions": "cited from earlier work"}, "phospholipase C-γ": {"test_system": "phospholipase C-γ", "conditions": "cited from earlier work"}, "MMP-2 [8]": {"test_system": "MMP-2", "assay": "Gelatin zymography of conditioned media from human cancer cell lines (gelatinase activity)", "format": "cell-based", "description": "as §1\nQuantitation of the effect was evaluated by laser densitometry of the resultant zymograms.\nAliquots of conditioned medium (15 μL) were electrophoresed on gelatin-containing 10% PAGE gels under nonreducing but denaturing conditions. These conditions allow the different gelatin-degrading species (MMPs) to separate by size. […] Bands of clearing, seen after Coomassie blue staining correspond to areas of gelatinase activity.\nOVCAR3 conditioned media samples were concentrated 10-fold prior to zymography.\nKnown concentrated conditioned medium from HT1080 cells was used for identification of the gelatinase species as marked in FIG. 1A: 92 kDa, gelatinase B/MMP-9; 72 kDa, gelatinase A/MMP-2 latent form; 65 kDa intermediate and 62 kDa activated forms of MMP-2. The activated form of MMP-2 results from cleavage of the amino terminal domain.\nLane 1 corresponds to cells treated only with 0.05% DMSO as a control.\nQuantitation of the zymograms in FIGS. 1A-1C were carded out using laser densitometry.\nThe effect of structural analogs on the gelatinase activity of A2058 cells was similarly evaluated."}}, "note": "Entries after “also recorded” stand apart in the source; their conditions may differ."}
{"molecule": "TGF-β1: transforming growth factor-β1", "values": [{"measurement": "production of MMP-2 by stimulation of RNA expression", "setting": "MMP-2 [1]; cell type not stated", "result": "stimulate production of MMP-2 by stimulation of RNA expression"}, {"measurement": "MMP-2 induction/inhibition", "setting": "MMP-2 [1]", "result": "induction of MMP-2"}, {"measurement": "MMP-1 induction/inhibition", "setting": "[2]", "result": "inhibition of the interstitial collagenase, MMP-1"}, {"measurement": "gelatinase activity, 92 kDa", "setting": "MMP-9", "result": 64, "unit": "%"}, {"measurement": "gelatinase activity, 65 + 62 kDa", "setting": "MMP-2 [3]", "result": 192, "unit": "%"}, {"measurement": "gelatinase activity, 72 kDa", "setting": "MMP-2 [3]", "result": 47, "unit": "%"}, {"measurement": "gelatinase activity", "setting": "gelatinase activity", "result": "increased gelatinase activity"}, {"measurement": "gelatinase activity, 65 + 62 kDa", "setting": "MMP-2 [4]", "result": 0, "unit": "%"}, {"measurement": "gelatinase activity, 72 kDa", "setting": "MMP-2 [4]", "result": 68, "unit": "%"}]}
{"molecule": "O=C(O)CN(CCOCCOCCN(CC(=O)O)CC(=O)O)CC(=O)O", "note": "[EGTA, ethylenebis(oxyethylenenitrilo)tetraacetic acid, reference compound]", "values": [{"measurement": "requirement for metal ion in the activation buffer", "setting": "[5]", "result": "confirmed the requirement for metal ion (Ca^++) in the activation buffer"}]}
{"molecule": "CCCCCCCCCCCCCC(=O)OC1C(C)C2(O)C(C=C(CO)CC3(O)C(=O)C(C)=CC32)C2C(C)(C)C12OC(C)=O", "note": "(stereo not shown) [TPA, 12-O-tetradecanoylphorbol-13-acetate, reference compound]", "values": [{"measurement": "MMP-2 induction/inhibition", "setting": "MMP-2 [1]", "result": "inhibition of MMP-2"}, {"measurement": "MMP-1 induction/inhibition", "setting": "[2]", "result": "induction of MMP-1"}]}
{"molecule": "O=C(O)CN(CCN(CC(=O)O)CC(=O)O)CC(=O)O", "note": "[EDTA, ethylenediamine tetraacetic acid, reference compound]", "values": [{"measurement": "inhibition of gelatinolytic activity", "setting": "[6]", "result": "inhibit gelatinolytic activity"}, {"measurement": "requirement for metal ion in the activation buffer", "setting": "[5]", "result": "confirmed the requirement for metal ion (Ca^++) in the activation buffer"}]}
{"molecule": "COc1ccc(CCCOC(Cn2ccnc2)c2ccc(OC)cc2)cc1", "note": "(stereo not shown) [Compound 2, reference compound]", "values": [{"measurement": "calcium influx inhibition", "setting": "[7]", "result": "inhibited; also recorded: effective inhibitor of receptor-operated calcium channels with reactivity against some voltage-gated calcium channels"}, {"measurement": "arachidonic acid release", "setting": "arachidonic acid release", "result": "inhibited"}, {"measurement": "tyrosine phosphorylation with activation of phospholipase C-γ", "setting": "phospholipase C-γ", "result": "inhibited"}, {"measurement": "MMP-2 activity", "setting": "MMP-2 [8]; A2058, 10 μM (FIG. 1E)", "result": "reduced MMP-2 activity"}, {"measurement": "inhibition of MMP-2 gelatinase activity (FIG. 1)", "setting": "MMP-2 [8]; zymograms of FIG. 1", "result": "inhibition"}]}
